According to patent US8487102B2, “Pyrrazolopyridine compounds as dual NK1/NK3 receptor antagonists” (Hoffmann-La Roche Inc., priority 2010, dated 2013):

Columns and labels:
[1] = target: T1, Recombinant human NK3 (hNK3) receptor (Homo sapiens, UniProt P29371); assay: NK3 receptor binding assay, [3H]SR142801 displacement; conditions: hNK3 receptor membranes, [3H]SR142801 0.3 nM
T1 construct: expressed in transfected cells; membrane preparations of the recombinant receptor
T1 sequence (P29371 1-465): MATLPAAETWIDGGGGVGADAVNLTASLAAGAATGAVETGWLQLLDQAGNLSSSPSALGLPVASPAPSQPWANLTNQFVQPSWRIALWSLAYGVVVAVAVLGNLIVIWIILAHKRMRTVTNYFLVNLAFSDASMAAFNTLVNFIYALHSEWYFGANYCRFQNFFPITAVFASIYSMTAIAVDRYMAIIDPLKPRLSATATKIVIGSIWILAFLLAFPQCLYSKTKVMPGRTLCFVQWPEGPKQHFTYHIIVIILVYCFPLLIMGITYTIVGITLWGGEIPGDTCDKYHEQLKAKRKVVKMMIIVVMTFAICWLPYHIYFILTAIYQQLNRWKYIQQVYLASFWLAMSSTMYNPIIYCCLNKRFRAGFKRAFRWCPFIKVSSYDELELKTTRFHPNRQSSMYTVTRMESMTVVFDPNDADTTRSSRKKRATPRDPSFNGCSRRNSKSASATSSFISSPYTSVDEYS
Experimental: Recombinant human NK3 (hNK3) receptor affinity was determined in a 96 well plate assay, using [^3H]SR142801 (final concentration 0.3 nM) to radiolabel the hNK3 receptor in the presence of 10 concentrations of competing compound or buffer. Non specific binding was determined using 10 μM SB222200. Assay buffer consisted of Tris-HCl (50 mM, pH 7.4), BSA (0.1%), MnCl2 (4 mM) and phosphoramidon (1 μM). Membrane preparations of hNK3 receptors (approximately 2.5 μg/well in a 96 well plate) were used to initiate the incubation for 90 min at room temperature. This assay was terminated by rapid filtration under vacuum through GF/C filters, presoaked for 90 min with PEI (0.3%), with 3×0.5 ml washes of ice-cold Tris buffer (50 mM, pH 7.4) containing 0.1% BSA. The radioactivity retained on the filters was measured by scintillation counting. All assays were performed in duplicate in at least two separate experiments.

human NK1 receptor = target: T2, human NK1 receptor (Homo sapiens, UniProt P25103); assay: NK1 receptor binding assay, [3H]substance P displacement; conditions: human NK1 receptors in CHO cells, [3H]substance P 0.6 nM
T2 construct: expressed in transfected cells; host or cells: CHO cells (Semliki virus expression system), membrane suspension
T2 sequence (P25103 whole entry): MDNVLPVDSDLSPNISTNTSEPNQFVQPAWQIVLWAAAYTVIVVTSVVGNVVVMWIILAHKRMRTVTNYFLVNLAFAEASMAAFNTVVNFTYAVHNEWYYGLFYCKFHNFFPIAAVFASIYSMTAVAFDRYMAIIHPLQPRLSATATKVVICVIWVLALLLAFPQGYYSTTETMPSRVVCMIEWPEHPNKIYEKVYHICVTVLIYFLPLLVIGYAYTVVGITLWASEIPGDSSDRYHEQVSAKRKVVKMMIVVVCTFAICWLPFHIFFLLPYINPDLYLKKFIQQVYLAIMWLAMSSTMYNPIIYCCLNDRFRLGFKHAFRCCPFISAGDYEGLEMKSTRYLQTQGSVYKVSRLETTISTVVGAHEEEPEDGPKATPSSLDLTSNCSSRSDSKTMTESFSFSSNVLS

| Ki [1] | Ki (human NK1 receptor) | Compound |
| --- | --- | --- |
| 373 nM | 8.6 nM | CCn1ncc2c(-c3ccc(OC)cc3C)c(N(C)C(=O)C(C)(C)c3cc(C(F)(F)F)cc(C(F)(F)F)c3)cnc21 [Example 16, 2-(3,5-Bis-trifluoromethyl-phenyl)-N-[1-ethyl-4-(4-methoxy-2-methyl-phenyl)-1H-pyrazolo[3,4-b]pyridin-5-yl]-N-methyl-isobutyramide] |
| 355 nM | 4.2 nM | CCn1ncc2c(-c3cccc(Cl)c3)c(N(C)C(=O)C(C)(C)c3cc(C(F)(F)F)cc(C(F)(F)F)c3)cnc21 [Example 17, 2-(3,5-Bis-trifluoromethyl-phenyl)-N-[4-(3-chloro-phenyl)-1-ethyl-1H-pyrazolo[3,4-b]pyridin-5-yl]-N-methyl-isobutyramide] |
| 13.8 nM | 0.3 nM | CCn1ncc2c(-c3ccc(F)cc3Cl)c(N(C)C(=O)C(C)(C)c3cc(C(F)(F)F)cc(C(F)(F)F)c3)cnc21 [Example 19, 2-(3,5-Bis-trifluoromethyl-phenyl)-N-[4-(2-chloro-4-fluoro-phenyl)-1-ethyl-1H-pyrazolo[3,4-b]pyridin-5-yl]-N-methyl-isobutyramide] |
| 209 nM | 1.6 nM | CCn1ncc2c(-c3ccccc3CO)c(N(C)C(=O)C(C)(C)c3cc(C(F)(F)F)cc(C(F)(F)F)c3)cnc21 [Example 20, 2-(3,5-Bis-trifluoromethyl-phenyl)-N-[1-ethyl-4-(2-hydroxymethyl-phenyl)-1H-pyrazolo[3,4-b]pyridin-5-yl]-N-methyl-isobutyramide] |
| 1.2 nM | 92 nM | CCn1ncc2c(-c3cscc3C)c(N(C)C(=O)C(C)(C)c3cc(C(F)(F)F)cc(C(F)(F)F)c3)cnc21 [Example 21, 2-(3,5-Bis-trifluoromethyl-phenyl)-N-[1-ethyl-4-(4-methyl-thiophen-3-yl)-1H-pyrazolo[3,4-b]pyridin-5-yl]-N-methyl-isobutyramide] |
| 4.8 nM | 2.5 nM | CCn1ncc2c(-c3cc(CO)ccc3Cl)c(N(C)C(=O)C(C)(C)c3cc(C(F)(F)F)cc(C(F)(F)F)c3)cnc21 [Example 22, 2-(3,5-Bis-trifluoromethyl-phenyl)-N-[4-(2-chloro-5-hydroxymethyl-phenyl)-1-ethyl-1H-pyrazolo[3,4-b]pyridin-5-yl]-N-methyl-isobutyramide] |
| 979 nM | 4.9 nM | CCn1ncc2c(-c3ccc(C#N)cc3)c(N(C)C(=O)C(C)(C)c3cc(C(F)(F)F)cc(C(F)(F)F)c3)cnc21 [Example 23, 2-(3,5-Bis-trifluoromethyl-phenyl)-N-[4-(4-cyano-phenyl)-1-ethyl-1H-pyrazolo[3,4-b]pyridin-5-yl]-N-methyl-isobutyramide] |
| 0.7 nM | 36 nM | CCn1ncc2c(-c3ccsc3Cl)c(N(C)C(=O)C(C)(C)c3cc(C(F)(F)F)cc(C(F)(F)F)c3)cnc21 [Example 24, 2-(3,5-Bis-trifluoromethyl-phenyl)-N-[4-(2-chloro-thiophen-3-yl)-1-ethyl-1H-pyrazolo[3,4-b]pyridin-5-yl]-N-methyl-isobutyramide] |
| 94.2 nM | 4.2 nM | CCn1ncc2c(-c3ccc(F)cc3C)c(N(C)C(=O)C(C)(C)c3cc(F)cc(C(F)(F)F)c3)cnc21 [Example 26, 2-(3-fluoro-5-trifloromethyl-phenyl)-N-[1-ethyl-4-(4-fluoro-2-methyl-phenyl)-1H-pyrazolo[3,4-b]pyridin-5-yl]-N-methyl-isobutyramide] |
| 35.1 nM | 2.6 nM | CCn1ncc2c(-c3ccc(F)cc3C)c(N(C)C(=O)C(C)(C)c3cc(Cl)cc(Cl)c3)cnc21 [Example 27, 2-(3,5-Dichloro-phenyl)-N-[1-ethyl-4-(4-fluoro-2-methyl-phenyl)-1H-pyrazolo[3,4-b]pyridin-5-yl]-N-methyl-isobutyramide] |
| 27.3 nM | 1.6 nM | Cc1cc(F)ccc1-c1c(N(C)C(=O)C(C)(C)c2cc(C(F)(F)F)cc(C(F)(F)F)c2)cnc2[nH]ncc12 [Example 28, 2-(3,5-Bis-trifluoromethyl-phenyl)-N-[4-(4-fluoro-2-methyl-phenyl)-1H-pyrazolo[3,4-b]pyridin-5-yl]-N-methyl-isobutyramide] |
